The test system of the assay is Huh7.5 cells. Nature of the assay: Quantitative RT-PCR of hepatocyte differentiation markers in cultured Huh7.5 cells. Type of assay: cell-based, human. Conditions: Huh7.5 cells grown 3 weeks, relative to FBS. As to the method: RNA was isolated from cells using Trizol, according to the instructions of the manufacturer. cDNA was produced from the RNA using Quantitect Reverse Transcription kit (Qiagen). Gene specific primer-probe sets were designed by Applied Biosystems. An Applied Biosystems 7900HT Fast Real-Time PCR system was used for the quantitation of gene products. Gene expression was calculated relative to HPRT according to Pfaffl (Pfaffl M W. Nucleic Acids Res 29: e45, 2001).
To further evaluate the effect of culturing cells in HS-containing medium, and to assess whether these cells underwent differentiation to a primary hepatocyte-like cell, level of expression of hepatocyte differentiation marker were assayed at 7 days and 21 days after transfer of Huh7.5 cells into HS-supplemented medium. After 7 days only minor changes in hepatocyte markers were observed. (FIG. 3A) However, after 21 days, the expression of the hepatic differentiation markers albumin and alpha1-antiTrypsin was increased approximately 4 fold in cells grown in human serum compared to FBS. The level of expression of these proteins is similar to the level of expression of human primary hepatocytes in culture.
DMSO, (dimethyl sulfoxide) has been reported to induce growth arrest in HuH-7 or -derived cells, and other hepatoma cells. (Sainz et al. (2006) J Virol 80: 10253-10257). […]

We go through one compound from patent US9969979B2, “Methods for producing cells having a phenotype of a primary human hepatocytes and compositions” (The Governors of the University of Alberta, priority 2012, dated 2018).

With `C[S+](C)[O-]` [DMSO, dimethyl sulfoxide], the Albumin expression entry is given as “slight increase”.
